Several values for one entry are separate records, joined by “and”; a condition that tells them apart may be missing. Identical values can stand only once. Entries after “also recorded” stand apart in the source; their conditions may differ. Like-named read-outs stand apart in the source and are kept apart here.
Tests used:
[1] = test system: AMPA receptor-mediated fEPSP; test: Extracellular recording of AMPA receptor-mediated fEPSP in CA1 of hippocampal slices; assay type: cell-based, rat
Experimental: (§1) Male Wistar and Sprague-Dawley rats (Crl:Wi; Charles River, UK) aged 3–10 weeks old were killed by dislocation of cervical vertebrae according to Schedule 1 of the United Kingdom (Scientific Procedures) Act of 1986. Brains were rapidly removed and put in artificial cerebrospinal fluid (aCSF) consisting of 124 mM NaCl, 26 mM NaHCO3, 3 mM KCl, 1.4 mM NaH2PO4, 1 mM MgSO4, 2 mM CaCl2, and 10 mM D-glucose and continuously oxygenated with 95% O2 and 5% CO2. Parasagittal brain slices, 400 μm thick, of the hippocampus were removed, stored and placed in a submerged recording chamber at 28–30 °C.
Recordings of extracellular synaptic activity were made ([Ceolin et al., 2012], [Volianskis et al., 2013]) using a bipolar electrode to deliver stimuli (0.03 Hz) to the Schaffer collateral pathway to evoke field excitatory postsynaptic potentials (fEPSPs) recorded from a glass microelectrode (3–6 MΩ) in the stratum radiatum of area CA1. […] In initial experiments after 30 min of stable control responses, the remaining response was challenged with 30 μM ephenidine. Using this protocol for isolating NMDA-fEPSPs (see Fig. 2A), 1 and 10 μM ephenidine or 1 and 10 μM D-2-amino-5-phosphonopentanoic acid (D-AP5) were added to the perfusate for up to 4 h while recording the amplitude and area of the NMDA-fEPSP on-line using WinLTP ([Anderson and Collingridge, 2007]). […]

[2] = test system: NMDA receptor-mediated fEPSP; test: Extracellular recording of NMDA receptor-mediated fEPSP in CA1 of hippocampal slices; assay type: cell-based, rat; details: for time-course of reduction of NMDA receptor mediated fEPSP: 1 and 10 μM; for inhibition of NMDA receptor mediated fEPSP: after 4 h superfusion
Experimental: as §1
Recordings of extracellular synaptic activity were made ([Ceolin et al., 2012], [Volianskis et al., 2013]) using a bipolar electrode to deliver stimuli (0.03 Hz) to the Schaffer collateral pathway to evoke field excitatory postsynaptic potentials (fEPSPs) recorded from a glass microelectrode (3–6 MΩ) in the stratum radiatum of area CA1. […] In initial experiments after 30 min of stable control responses, the remaining response was challenged with 30 μM ephenidine. Using this protocol for isolating NMDA-fEPSPs (see Fig. 2A), 1 and 10 μM ephenidine or 1 and 10 μM D-2-amino-5-phosphonopentanoic acid (D-AP5) were added to the perfusate for up to 4 h while recording the amplitude and area of the NMDA-fEPSP on-line using WinLTP ([Anderson and Collingridge, 2007]). Single exponential curves were fitted to show likely half-times and minimum plateau responses achieved with each concentration used. For selectivity experiments, 50 μM picrotoxin and 1 μM CGP 55845 were added to the solution from the beginning of the experiment and 50 μM ephenidine was superfused for 60 min in the absence of other pharmacological agent.

[3] = test system: NMDA receptor-mediated EPSCs; test: Whole-cell patch clamp of NMDA receptor-mediated EPSCs in CA1 pyramidal cells; assay type: cell-based, rat
Experimental: as §1
Whole-cell patch clamp recordings of excitatory postsynaptic currents (EPSCs) were made from CA1 pyramidal cells under visual guidance with IR-DIC optics as described by [Park et al. (2016)]. The recording chamber was maintained at 32 °C. Borosilicate glass pipettes were used with a resistance of 3–5 MΩ. The internal solution comprised (mM): 8 NaCl, 130 CsMeSO3, 10 HEPES, 0.5 EGTA, 4 Mg-ATP, 0.3 Na3-GTP, 5 QX-314 and 0.1 spermine. The pH was adjusted to 7.2–7.3 with CsOH and osmolarity to 285–290 mOsm. Peak amplitude of EPSCs was measured while varying holding voltage from −60 mV to +60 mV and stimulating the Schaffer collateral pathway at a frequency of 0.1 Hz at constant intensity. Five consecutive responses obtained at each holding potential were averaged to plot the current-voltage relationship. Currents through NMDA receptors were pharmacologically isolated using 10 μM NBQX, 50 μM picrotoxin and 20 μM (+)-bicuculline. In initial experiments, MgSO4 was omitted from the bath solution for at least 30 min before patching and replaced with 30 μM ephenidine, 10 μM ketamine, 30 μM D-AP5 or 2 mM MgSO4. Rectification indices were calculated from the EPSC values at +40 mV and −40 mV. In subsequent experiments, slices were incubated in aCSF with no added MgSO4, before transferring to the recording chamber to obtain control current-voltage plots from NMDA-EPSCs as above before adding 2 mM MgSO4 or 30 μM ephenidine for 30 min and repeating the current-voltage protocol. Representative sample traces are shown from typical experiments, and stimulus artifacts blanked for clarity. Data were normalized to the baseline preceding drug application, and are presented as mean ± SEM and compared using one-way ANOVA and level of significance is denoted as *** for p values < 0.001.

[4] = biological target: MK-801 binding site of the NMDA receptor; design: method as in Wallach et al., 2016; details: same assay, ref Wallach et al., 2016, cited from earlier work; for Ki: read-out: Ki, (+)-[3H]-MK-801 displacement
[5] = test system: remaining 41 CNS receptors (Supplement 2); test: NIMH PDSP primary binding screen at 10 μM, remaining 41 receptors
Experimental: (§2) Displacement by ephenidine in binding assays of a further 45 CNS receptors was performed through the National Institute of Mental Health Psychoactive Drug Screening Program (NIMH PDSP). Briefly ephenidine, dissolved in DMSO, was subject to a primary screen at a concentration of 10 μM (see Suppl. 2 for radioligands used). […] Additional experimental details are available in the NIMH PDSP protocol book ([Roth et al., 2013]).

[6] = biological target: MK-801 binding site of the NMDA receptor; test: (+)-[3H]-MK-801 displacement binding in whole rat brain homogenate
Experimental: Termination of reaction was performed via vacuum filtration using a 24 well cell harvester (Brandel, Gaithersburg, MD) over presoaked GF/B glass fiber filters (Brandel, Gaithersburg, MD). Filters were washed with room temperature assay buffer (3 × 5 mL). Trapped tritium was measured via liquid scintillation counting, using a Beckman LS 6500 multipurpose scintillation counter (BeckmanCoulter, USA) at 57% efficiency. IC50 values were determined in Graphpad Prism 5.0 using non-linear regression with log-concentration plotted against percent specific binding. […] Ki values were calculated using the equation of [Cheng and Prusoff (1973)]. […] Protein concentration was determined via the Bradford method using Coomassie protein assay reagent (Sigma, USA) with rat albumin (Sigma, USA) as standard. Experiments were performed in duplicate and repeated three or four times.

[7] = test system: PCP binding site; design: method as in Thurkauf et al., 1989; details: ref Thurkauf et al., 1989; cited from earlier work
[8] = biological target: noradrenaline transporter (NET) (Homo sapiens, UniProt P23975); test: NIMH PDSP receptor binding assay, noradrenaline transporter
Sequence of noradrenaline transporter (NET) (P23975 whole entry): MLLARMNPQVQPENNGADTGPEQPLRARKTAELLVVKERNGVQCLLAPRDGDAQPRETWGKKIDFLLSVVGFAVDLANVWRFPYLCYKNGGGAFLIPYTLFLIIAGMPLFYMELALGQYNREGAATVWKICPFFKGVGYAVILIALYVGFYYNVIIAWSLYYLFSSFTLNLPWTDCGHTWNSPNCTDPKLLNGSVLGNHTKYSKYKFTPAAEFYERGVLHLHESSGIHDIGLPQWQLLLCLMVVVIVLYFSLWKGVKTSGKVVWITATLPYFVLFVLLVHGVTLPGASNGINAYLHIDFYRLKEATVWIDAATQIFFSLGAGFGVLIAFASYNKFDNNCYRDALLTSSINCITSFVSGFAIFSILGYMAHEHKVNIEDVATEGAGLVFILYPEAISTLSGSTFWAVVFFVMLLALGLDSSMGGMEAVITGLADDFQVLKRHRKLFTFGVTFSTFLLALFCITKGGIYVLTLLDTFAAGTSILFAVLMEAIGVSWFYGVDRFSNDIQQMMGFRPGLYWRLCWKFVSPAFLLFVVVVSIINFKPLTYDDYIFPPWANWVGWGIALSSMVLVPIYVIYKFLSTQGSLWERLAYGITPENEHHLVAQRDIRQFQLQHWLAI
Experimental: as §2

[9] = test system: long-term potentiation (LTP) in CA1; test: LTP of fEPSPs in Schaffer collateral-CA1 pathway induced by theta burst stimulation; assay type: cell-based, rat
Experimental: as §1
To study the effect of ephenidine on long-term potentiation (LTP), slices were incubated in control aCSF or aCSF containing 10 μM ephenidine for at least 2 h before transferring to the recording chamber, fEPSPs were recorded as above without addition of other agents. After obtaining stable responses, a theta burst stimulation (TBS; [Park et al., 2016]) was applied to the Schaffer collateral pathway and the amplitude of the fEPSP in CA1 monitored for at least a further 40 min.

[10] = biological target: sigma 2 binding site (Homo sapiens, UniProt Q5BJF2); test: NIMH PDSP receptor binding assay, sigma 2
Sequence of sigma 2 binding site (Q5BJF2 whole entry): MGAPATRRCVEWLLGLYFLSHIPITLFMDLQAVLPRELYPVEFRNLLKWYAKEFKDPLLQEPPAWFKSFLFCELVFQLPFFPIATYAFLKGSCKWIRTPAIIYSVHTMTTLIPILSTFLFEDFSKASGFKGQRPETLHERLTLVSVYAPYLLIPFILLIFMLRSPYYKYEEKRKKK
Experimental: as §2

[11] = biological target: dopamine transporter (DAT) (Homo sapiens, UniProt Q01959); test: NIMH PDSP receptor binding assay, dopamine transporter
Sequence of dopamine transporter (DAT) (Q01959 whole entry, species assumed): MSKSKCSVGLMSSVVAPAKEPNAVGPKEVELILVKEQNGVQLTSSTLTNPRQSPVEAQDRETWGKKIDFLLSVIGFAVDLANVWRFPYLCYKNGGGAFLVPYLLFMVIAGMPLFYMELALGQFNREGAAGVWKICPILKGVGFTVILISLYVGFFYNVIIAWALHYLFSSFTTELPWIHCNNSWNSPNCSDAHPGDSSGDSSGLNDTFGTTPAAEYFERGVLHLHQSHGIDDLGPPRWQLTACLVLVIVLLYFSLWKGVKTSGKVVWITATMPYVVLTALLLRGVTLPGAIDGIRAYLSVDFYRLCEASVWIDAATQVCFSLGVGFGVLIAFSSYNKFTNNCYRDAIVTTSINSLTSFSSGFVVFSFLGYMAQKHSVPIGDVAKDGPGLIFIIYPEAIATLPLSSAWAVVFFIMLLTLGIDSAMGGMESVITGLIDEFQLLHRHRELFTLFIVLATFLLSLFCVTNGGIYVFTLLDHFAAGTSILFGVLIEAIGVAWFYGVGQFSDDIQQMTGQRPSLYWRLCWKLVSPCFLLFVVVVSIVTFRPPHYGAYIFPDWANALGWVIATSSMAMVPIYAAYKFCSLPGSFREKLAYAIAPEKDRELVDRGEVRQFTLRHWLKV
Experimental: as §2

[12] = biological target: sigma 1 binding site (Homo sapiens, UniProt Q99720); test: NIMH PDSP receptor binding assay, sigma 1; details: affinity for sigma 1 binding site, NIMH PDSP secondary assay
Sequence of sigma 1 binding site (Q99720 whole entry): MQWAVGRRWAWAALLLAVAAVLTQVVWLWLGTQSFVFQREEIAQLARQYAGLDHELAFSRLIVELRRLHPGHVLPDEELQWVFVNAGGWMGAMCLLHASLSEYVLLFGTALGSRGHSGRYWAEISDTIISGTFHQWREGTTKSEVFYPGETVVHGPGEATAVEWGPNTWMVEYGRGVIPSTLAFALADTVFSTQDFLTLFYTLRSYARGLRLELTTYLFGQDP
Experimental: as §2

## NS(=O)(=O)c1cccc2c1c([N+](=O)[O-])cc1nc(O)c(O)nc12 [NBQX, reference compound]
[1]; 3 μM
  effect on AMPA receptor mediated fEPSP: rapid block of the remaining fEPSP

## CNC1(c2ccccc2Cl)CCCCC1=O (stereo not shown) [ketamine]
[2]
  time-course of reduction of NMDA receptor mediated fEPSP: slower reduction
[3]; 10 μM, no added Mg2+
  rectification index (RI; +40 mV/−40 mV): 2.0 ± 0.2
[4]; listed as Ketamine
  Ki: 324 ± 19.2 nM
[4]; read-out: IC50, (+)-[3H]-MK-801 displacement
  IC50: 508 ± 30.1 nM
[4]
  Ki: 324 ± 19 nM

## CCNC(Cc1ccccc1)c1ccccc1 (stereo not shown) [ephenidine, N-Ethyl-1,2-diphenylethanamine]
[2]; 1 μM
  inhibition of NMDA receptor mediated fEPSP: 25%
[2]; 10 μM
  inhibition of NMDA receptor mediated fEPSP: near maximal inhibition; also recorded: near maximal effect
[2]; 30 μM
  effect on NMDA receptor mediated fEPSP: slowly reduced
[3]; 10 μM
  block of NMDA receptor-mediated EPSCs: blocked NMDA receptor-mediated EPSCs in a highly voltage-dependent manner
[3]; 30 μM ephenidine, no added Mg2+
  rectification index (RI; +40 mV/−40 mV): 3.6 ± 0.3
[3]; 30 μM, no added Mg2+
  effect on NMDA-EPSC current-voltage relationship: reduction of inward current at negative holding potentials
[3]; 30 μM, no added Mg2+, holding potential +40 mV
  mean NMDA-EPSC current at +40 mV: 133 ± 12 pA
[3]; 30 μM, no added Mg2+, holding potential −40 mV
  mean NMDA-EPSC current at −40 mV: −48 ± 8 pA
[5]
  displacement in primary screen: less than 50%
[1]; 50 μM, 1 h superfusion
  effect on AMPA receptor mediated fEPSP (peak amplitude): lack of effect; also recorded: did not affect; also recorded: no significant reduction
[6]; 1 nM (+)-[3H]-MK-801
  IC50: 104 ± 5.9 nM
[6]; 1 nM (+)-[3H]-MK-801, Cheng-Prusoff
  Ki: 66 nM and 66.4 nM
[7]
  affinity for the PCP binding site: 257 nM
[8]
  Ki: 841 nM
[9]; 10 μM
  effect on induction of LTP: blocked the induction of long term potentiation (LTP); also recorded: completely blocked the induction of LTP
[9]; 30 μM
  effect on induction of LTP: completely blocked the induction of LTP
[10]
  Ki: 721 nM
[11]
  Ki: 379 nM
[12]
  Ki: 629 nM and 628 nM

## N[C@H](CCCP(=O)(O)O)C(=O)O [D-AP5, D-2-amino-5-phosphonopentanoic acid, reference compound]
[2]
  time-course of reduction of NMDA receptor mediated fEPSP: rapid reduction
[3]; 30 μM D-AP5, no added Mg2+
  rectification index (RI; +40 mV/−40 mV): 0.8 ± 0.01
[3]; 30 μM, no added Mg2+
  effect on NMDA-EPSC current-voltage relationship: reduced both inward and outward current

Source: PMC5084681, “Ephenidine: A new psychoactive agent with ketamine-like NMDA receptor antagonist properties” (Neuropharmacology, 2017)
